These results are taken from patent US9187472B2 (AbbVie Inc., priority 2012, dated 2015).

Bounds are passed on as bounds.

One assay concerns the target NAMPT (Homo sapiens, UniProt P43490). The assay is described as follows: TR-FRET Binding Assay of NAMPT with PRPP. The settings on record: with 200 μM PRPP and 2.5 mM ATP; 2 nM NAMPT, 2 nM probe, 16 hours equilibration. As to the method: Time-Resolved Fluorescence Resonance Energy Transfer (TR-FRET) Binding Assay of NAMPT with PRPP
Compound handling and data processing were identical to the assay in the absence of substrates (above). Final concentrations were 1× assay buffer, 2% DMSO, 2 nM NAMPT, 2 nM probe, 1 nM Tb-anti-His antibody (Invitrogen # PV5895), 200 μM PRPP and 2.5 mM ATP. Reactions were equilibrated for 16 hours prior to measurement to allow for potential enzymatic modification of test compounds.
(TR-FRET usually uses a lanthanide donor and a delayed reading to cut background.)

The target of assay [1] is NAMPT (human, recombinant, C-terminally His-tagged) (Homo sapiens, UniProt P43490). The assay is described as follows: Time-Resolved Fluorescence Resonance Energy Transfer (TR-FRET) Binding Assay of NAMPT. The settings on record: without substrates; 6.8 nM NAMPT, 200 nM probe, 3 hours equilibration. As to the method:
Determination of the utility of compounds having Formula (I) as binders to and inhibitors of NAMPT was performed using Time-Resolved Fluorescence Resonance Energy Transfer (TR-FRET) binding assays.
Time-Resolved Fluorescence Resonance Energy Transfer (TR-FRET) Binding Assay of NAMPT
Test compounds were serially diluted (typically 11 half log dilutions) in neat DMSO to 50× final concentrations prior to dilution with assay buffer (50 mM HEPES (NaOH), pH 7.5, 100 mM NaCl, 10 mM MgCl2, 1 mM DTT, 1% Glycerol) to 3× and 6% DMSO. Six μL were transferred to 384-well low-volume plates (Owens Corning #3673). To this, […] of a 1.5× solution containing enzyme, probe and antibody were added. Final concentrations in the 18 μL, reactions were 1× assay buffer, 2% DMSO, 6.8 nM NAMPT (human, recombinant, C-terminally His-tagged), 200 nM probe (a potent nicotinamide-competitive inhibitor conjugated to Oregon Green 488) and 1 nM Tb-anti-His antibody (Invitrogen # PV5895). Reactions were equilibrated at room temperature for 3 hours prior to reading on an Envision multi-label plate reader (Perkin Elmer; Ex=337 nm, Em=520 and 495 nm). Time-resolved FRET ratios (Em520/Em495) were normalized to controls, plotted as a function of compound concentration and fit with the four-parameter logistic equation to determine IC50s.

The subject of another assay is PC3 cells. Briefly: NAMPT Cell Proliferation Assay. Format: cell-based. The settings on record: Homo sapiens, PC-3, 120 h, 5 days incubation, cell viability by Cell Titer Glo. The procedure, abridged: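 Seed PC3 at 500 cells/well (RPMI, 10% HI-FBS), attach overnight; add compound, 10-fold series 10 μM → 1×10^−5 μM; incubate 5 d, 37° C/5% CO2; luminescent viability readout; fit % inhibition sigmoidally for IC50.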
For orientation: ATP-based viability assays read luminescence as a measure of living cells.

NAMPT, sequence (P43490 whole entry): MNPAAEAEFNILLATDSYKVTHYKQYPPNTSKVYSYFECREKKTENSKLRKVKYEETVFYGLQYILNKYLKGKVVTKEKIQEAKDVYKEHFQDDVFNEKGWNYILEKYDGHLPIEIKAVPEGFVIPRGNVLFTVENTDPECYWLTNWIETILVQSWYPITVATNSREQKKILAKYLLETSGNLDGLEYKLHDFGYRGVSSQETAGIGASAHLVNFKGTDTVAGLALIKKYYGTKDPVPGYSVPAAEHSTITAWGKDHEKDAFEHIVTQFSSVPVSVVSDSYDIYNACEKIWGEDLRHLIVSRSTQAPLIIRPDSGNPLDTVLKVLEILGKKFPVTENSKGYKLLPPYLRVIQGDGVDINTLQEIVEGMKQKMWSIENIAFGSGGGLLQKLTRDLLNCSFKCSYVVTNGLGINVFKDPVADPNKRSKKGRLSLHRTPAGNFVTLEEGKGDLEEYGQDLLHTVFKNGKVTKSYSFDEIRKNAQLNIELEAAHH
NAMPT (human, recombinant, C-terminally His-tagged), sequence (P43490 whole entry): as above

Usually IC50 stands for the concentration at which inhibition is half-maximal. With `CC(C)CCNC(=O)c1ccc(NC(=O)Nc2ccc3nccn3c2)cc1` [Example 1, 4-[(imidazo[1,2-a]pyridin-6-ylcarbamoyl)amino]-N-(3-methylbutyl)benzamide], the results for the IC50 (on NAMPT; in assay [1]; in the assay on PC3 cells) were 0.72 nM, 92.1 nM and 60.9 nM, respectively.
For `CC(C)CCNC(=O)c1ccc(NC(=O)Nc2ccn3ccnc3c2)cc1` [Example 2, 4-[(imidazo[1,2-a]pyridin-7-ylcarbamoyl)amino]-N-(3-methylbutyl)benzamide], in that order: 39.8 nM, 854 nM and > 10000 nM.
For `O=C(CC1CCCC1)Nc1ccc(NC(=O)Nc2ccc3nccn3c2)cc1` [Example 3, 2-cyclopentyl-N-{4-[(imidazo[1,2-a]pyridin-6-ylcarbamoyl)amino]phenyl}acetamide], in that order: 0.282 nM, 31.6 nM and 36.7 nM.
With `O=C(Nc1ccc(C(=O)NCCc2ccccc2)cc1)Nc1ccc2nccn2c1` [Example 4, 4-[(imidazo[1,2-a]pyridin-6-ylcarbamoyl)amino]-N-(2-phenylethyl)benzamide], the IC50 was 0.516 nM on NAMPT, 413 nM in assay [1] and 935 nM in the assay on PC3 cells.
For `O=C(Nc1ccc(C(=O)NCCN2CCOCC2)cc1)Nc1ccc2nccn2c1` [Example 5, 4-[(imidazo[1,2-a]pyridin-6-ylcarbamoyl)amino]-N-[2-(morpholin-4-yl)ethyl]benzamide], in that order: 0.684 nM, 2500 nM and 740 nM.
For `CC(C)(CO)NC(=O)c1ccc(NC(=O)Nc2ccc3nccn3c2)cc1` [Example 6, N-(1-hydroxy-2-methylpropan-2-yl)-4-[(imidazo[1,2-a]pyridin-6-ylcarbamoyl)amino]benzamide], in that order: 0.964 nM, 2910 nM and 6650 nM.
For `O=C(Nc1ccc(C(=O)NCc2ccccc2)cc1)Nc1ccc2nccn2c1` [Example 7, N-benzyl-4-[(imidazo[1,2-a]pyridin-6-ylcarbamoyl)amino]benzamide], in that order: 0.516 nM, 183 nM and 527 nM.
`O=C(Nc1ccc(C(=O)NCC2CCCC2)cc1)Nc1ccc2nccn2c1` [Example 8, N-(cyclopentylmethyl)-4-[(imidazo[1,2-a]pyridin-6-ylcarbamoyl)amino]benzamide]: the IC50 at NAMPT turned out to be 0.702 nM; in assay [1], 114 nM; in the assay with PC3 cells it was 70.2 nM.
For `O=C(Nc1ccc(C(=O)NCCCN2CCCCC2)cc1)Nc1ccc2nccn2c1` [Example 9, 4-[(imidazo[1,2-a]pyridin-6-ylcarbamoyl)amino]-N-[3-(piperidin-1-yl)propyl]benzamide], the IC50 at NAMPT amounted to 0.459 nM; in assay [1] it was 1720 nM; with PC3 cells, 649 nM.
Turning to `O=C(Nc1ccc(C(=O)NCCOc2ccccc2)cc1)Nc1ccc2nccn2c1` [Example 10, 4-[(imidazo[1,2-a]pyridin-6-ylcarbamoyl)amino]-N-(2-phenoxyethyl)benzamide], the figures for the IC50 (at NAMPT; in assay [1]; in the assay on PC3 cells) were 0.457 nM, 197 nM and 331 nM, respectively.
For `O=C(Nc1ccc(C(=O)NCCN2CCCC2)cc1)Nc1ccc2nccn2c1` [Example 11, 4-[(imidazo[1,2-a]pyridin-6-ylcarbamoyl)amino]-N-[2-(pyrrolidin-1-yl)ethyl]benzamide], in that order: 0.271 nM, 7600 nM and 4530 nM.
For `CC(C)OCCNC(=O)c1ccc(NC(=O)Nc2ccc3nccn3c2)cc1` [Example 12, -[(imidazo[1,2-a]pyridin-6-ylcarbamoyl)amino]-N-[2-(propan-2-yloxy)ethyl]benzamide], in that order: 0.292 nM, 486 nM and 213 nM.
Consider `CC(C)(O)CNC(=O)c1ccc(NC(=O)Nc2ccc3nccn3c2)cc1` [Example 13, N-(2-hydroxy-2-methylpropyl)-4-[(imidazo[1,2-a]pyridin-6-ylcarbamoyl)amino]benzamide], for which the IC50 at NAMPT turned out to be 0.663 nM; in assay [1], 653 nM; in the assay with PC3 cells it was 1170 nM.
For `COc1ccc(C(CO)NC(=O)c2ccc(NC(=O)Nc3ccc4nccn4c3)cc2)cc1` (stereo not shown) [Example 14, N-[2-hydroxy-1-(4-methoxyphenyl)ethyl]-4-[(imidazo[1,2-a]pyridin-6-ylcarbamoyl)amino]benzamide], in that order: 1.22 nM, 741 nM and 644 nM.
For `O=C(Nc1ccc(C(=O)NCCN2CCCC2=O)cc1)Nc1ccc2nccn2c1` [Example 15, 4-[(imidazo[1,2-a]pyridin-6-ylcarbamoyl)amino]-N-[2-(2-oxopyrrolidin-1-yl)ethyl]benzamide], in that order: 0.841 nM, 1760 nM and 3970 nM.
For `O=C(Nc1ccc(C(=O)NCC2CCCO2)cc1)Nc1ccc2nccn2c1` (stereo not shown) [Example 16], in that order: 0.396 nM, 409 nM and 325 nM.
Consider `CCCNC(=O)c1ccc(NC(=O)Nc2ccc3nccn3c2)cc1` [Example 17, 4-[(imidazo[1,2-a]pyridin-6-ylcarbamoyl)amino]-N-propylbenzamide], for which the results for the IC50 (on NAMPT; in assay [1]; in the assay with PC3 cells) were 0.401 nM, 2960 nM and 4960 nM, respectively.
For `O=C(Nc1ccc(C(=O)NCCCN2CCOCC2)cc1)Nc1ccc2nccn2c1` [Example 18, 4-[(imidazo[1,2-a]pyridin-6-ylcarbamoyl)amino]-N-[3-(morpholin-4-yl)propyl]benzamide], in that order: 0.418 nM, 2730 nM and 360 nM.
With `O=C(Nc1ccc(C(=O)Nc2ccccc2)cc1)Nc1ccc2nccn2c1` [Example 19, 4-[(imidazo[1,2-a]pyridin-6-ylcarbamoyl)amino]-N-phenylbenzamide], the half-inhibitory concentration (IC50) at NAMPT stood at 0.921 nM; in assay [1] it was 2680 nM; in the assay with PC3 cells, 6630 nM.
For the compound `CCC(C)CNC(=O)c1ccc(NC(=O)Nc2ccc3nccn3c2)cc1` (stereo not shown) [Example 20, 4-[(imidazo[1,2-a]pyridin-6-ylcarbamoyl)amino]-N-(2-methylbutyl)benzamide], the 50% inhibitory concentration (IC50) was 0.169 nM on NAMPT, 404 nM in assay [1] and 102 nM in the assay on PC3 cells.
On to `O=C(Nc1ccc(C(=O)NCCCN2CCCC2=O)cc1)Nc1ccc2nccn2c1` [Example 21, 4-[(imidazo[1,2-a]pyridin-6-ylcarbamoyl)amino]-N-[3-(2-oxopyrrolidin-1-yl)propyl]benzamide], for which the IC50 at NAMPT stood at 0.887 nM; in assay [1], 433 nM; in the assay with PC3 cells it was 899 nM.
For `O=C(Nc1ccc(C(=O)NCC2CCOCC2)cc1)Nc1ccc2nccn2c1` [Example 22], in that order: 0.277 nM, 399 nM and 142 nM.
For `O=C(Nc1ccc(C(=O)NCC2CCCCO2)cc1)Nc1ccc2nccn2c1` (stereo not shown) [Example 23], in that order: 0.409 nM, 281 nM and 41.5 nM.
For `O=C(Nc1ccc(C(=O)NCC2CCS(=O)(=O)C2)cc1)Nc1ccc2nccn2c1` (stereo not shown) [Example 24, N-[(1,1-dioxidotetrahydrothiophen-3-yl)methyl]-4-[(imidazo[1,2-a]pyridin-6-ylcarbamoyl)amino]benzamide], in that order: 0.363 nM, 167 nM and 691 nM.
Take `COCCC(=O)N(Cc1ccc(C#N)cc1)c1ncc(C(=O)NCc2ccn3ccnc3c2)s1` [Example 57, 2-[(4-cyanobenzyl)(3-methoxypropanoyl)amino]-N-(imidazo[1,2-a]pyridin-7-ylmethyl)-1,3-thiazole-5-carboxamide]: the IC50 in assay [1] was 5.8 nM; in the assay with PC3 cells, 5.76 nM.
Turning to `O=C(NCc1ccn2ccnc2c1)c1ccc(-c2cnn(C3CCOCC3)c2)s1` [Example 410, N-(imidazo[1,2-a]pyridin-7-ylmethyl)-5-[1-(tetrahydro-2H-pyran-4-yl)-1H-pyrazol-4-yl]thiophene-2-carboxamide], the IC50 at NAMPT amounted to 0.169 nM; in assay [1], 20.7 nM.
